Assay results reported in PubChem BioAssay AID2765 (Broad Institute, 2010).
The source made the active and inactive calls.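 How the source made its calls: active means half-maximal concentration for the rise in caspase light signal at or below ten times the top tested dose; inconclusive means flat fit between 30% and 70% activity, or unreliable curve fit; inactive means the rest.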

Tested on: MEF A1-2A-BIM cells, caspase 3/7 luminescence, 3 h
Test: caspase activation in A1-2A-BIM MEF cells, dose response, A1 inhibitor project, cell-based, luminescence, retest (AID 2765)

Row | SMILES | EC50
1 | Nc1cn(C2OC(CO)C(O)C2O)c(=O)[nH]c1=O (centres undefined) | > 35 µM (inactive)
2 | Cn1c2ccccc2c2cnn(CC(=O)NCCCN3CCN(c4ccccc4F)CC3)c(=O)c21 | > 35 µM (inactive)
3 | CCn1c(C)[n+](CCOC(C)=O)c2cc(Cl)c(Cl)cc21 | > 35 µM (inactive)
4 | COc1ccc([C@H]2CC(=O)C=C(c3ccccc3C(F)(F)F)C2)cc1 | > 35 µM (inactive)
5 | COc1cccc(-c2cc(C(F)(F)F)c(C#N)c(=O)[nH]2)c1 | > 35 µM (inactive)
6 | Cc1ccc(NC(=O)COC(=O)CCc2c(C)nc3ncnn3c2C)cc1C | > 35 µM (inactive)
7 | CCOC(=O)CN1C(=O)CC(c2ccc([N+](=O)[O-])cc2)C1=O (centres undefined) | > 35 µM (inactive)
8 | CCc1cccc(CC)c1NC(=O)C1CSC2(C)CCC(=O)N12 (centres undefined) | > 35 µM (inactive)
9 | Cc1ccccc1OCCOC(=O)c1c(-c2ccccc2)noc1C | > 35 µM (inactive)
10 | Cc1cccc(NC(=O)CCC(=O)N/N=C/c2ccco2)c1C | > 35 µM (inactive)
11 | O=[N+]([O-])c1ccccc1S(=O)(=O)N1CCN(S(=O)(=O)c2ccc3c(c2)OCCO3)CC1 | > 35 µM (inactive)
12 | Cc1ccn(C(=O)c2ccc(NC(=O)C3CCCCC3)cc2)n1 | > 35 µM (inactive)
13 | CCCS(=O)(=O)C/C(N)=N/OC(=O)c1ccc(Cl)cc1 | > 35 µM (inactive)
14 | COc1ccc(C2CC(c3c(O)cc(C)oc3=O)=NCCS2)c(OC)c1 (centres undefined) | > 35 µM (inactive)
15 | CCOC(=O)c1c(C)oc2c1c(CN1CCN(C(=O)OCC)CC1)c(O)c1ccccc12 | 8.16 µM
16 | COc1ccc(C(=O)NCc2nnc(SCC(=O)NCc3ccco3)o2)cc1OC | > 35 µM (inactive)
17 | CCS(=O)(=O)c1ncc(Cl)c(C(=O)Nc2ccc(S(=O)(=O)N3CCCC(C)C3)cc2)n1 (centres undefined) | > 35 µM (inactive)
18 | Cc1cc(C)c(S(=O)(=O)N2CCCCCC2)cc1Br | > 35 µM (inactive)
19 | CS(=O)(=O)Nc1ccc(C2=NN(S(C)(=O)=O)C(c3ccccc3)C2)cc1 (centres undefined) | > 35 µM (inactive)
20 | CCS(=O)(=O)c1ncc(Cl)c(C(=O)Nc2ccccc2OC)n1 | > 35 µM (inactive)
21 | Cc1cc(C)cc(C(=O)N2CC(=O)Nc3ccccc32)c1 | > 35 µM (inactive)
22 | CN(CC(=O)O)S(=O)(=O)c1ccc2oc3ccccc3c2c1 | > 35 µM (inactive)
23 | Cc1cc(C(=O)N2CCN(c3ccc(F)cc3)CC2)on1 | > 35 µM (inactive)
24 | CC(=O)N1CCN(C(=S)c2ccc([N+](=O)[O-])cc2)CC1 | > 35 µM (inactive)

Row | SMILES | EC50
25 | NS(=O)(=O)c1ccc(NC(=O)CN2CCc3ccccc32)cc1 | > 35 µM (inactive)
26 | CCOC(=O)CSCC(=O)N1N=C(c2cccs2)CC1c1ccc(F)cc1 (centres undefined) | > 35 µM (inactive)
27 | COCCCNC(=O)c1cccc(S(=O)(=O)N2CC3(C)CC2CC(C)(C)C3)c1 (centres undefined) | > 35 µM (inactive)
28 | Cc1cccc[n+]1CC(=O)c1ccccc1 | > 35 µM (inactive)
29 | N[C@@]1(C(=O)O)CC[C@@H](C(=O)O)C1 | > 35 µM (inactive)
30 | COc1ccc(C(=O)N/C(=C/c2cccs2)C(=O)NN)cc1OC | > 35 µM (inactive)
31 | COCc1cc(C)nc(SCC(=O)Nc2nc(C)cs2)c1C#N | > 35 µM (inactive)
32 | CCS(=O)(=O)c1nc2ccccc2n1Cc1ccccn1 | > 35 µM (inactive)
33 | O=C(c1cccc(F)c1F)N1CCCC1 | > 35 µM (inactive)
34 | Cc1cc(N2C(=O)CCC2=O)n(-c2ccccc2)n1 | > 35 µM (inactive)
35 | COc1cc(CN2CCc3ccccc3C2)ccc1O | > 35 µM (inactive)
36 | COc1cccc(C(=O)NCC(=O)N/N=C/c2ccc(OC(=O)c3cccs3)c(OC)c2)c1 | > 35 µM (inactive)
37 | Cc1ccc2c(C(=O)N3CCN(c4ccccc4)CC3)cc(-c3cccnc3)nc2c1C | > 35 µM (inactive)
38 | O=C1NC(=O)C(c2cn(-c3ccccc3)nc2-c2ccc(F)cc2)N1 (centres undefined) | > 35 µM (inactive)
39 | Clc1ccc(C(Cn2ccnc2)OCc2c(Cl)cccc2Cl)c(Cl)c1 (centres undefined) | > 35 µM (inactive)
40 | CCOC(=O)CCC(=O)Nc1ccc(S(=O)(=O)N2CCC(C)CC2)cc1 | > 35 µM (inactive)
41 | C=C1C(=O)O[C@H]2C[C@@H](C)[C@@H]3C=CC(=O)[C@@]3(C)C[C@H]12 | > 35 µM (inactive)
42 | Cc1cccc(N(C)C(=O)CCS(=O)(=O)c2cccc3nonc23)c1 | > 35 µM (inactive)
43 | CC(=O)c1ccc(S(=O)(=O)N2CCCCC2C(=O)O)cc1 (centres undefined) | > 35 µM (inactive)
44 | Cc1ccc(NC(=O)Cn2c(=O)cnc3ccccc32)cc1S(=O)(=O)N1CCOCC1 | > 35 µM (inactive)
45 | COc1ccc2[nH]c(=O)c(CN(CC3CCCO3)C(=O)Nc3ccccc3)cc2c1 (centres undefined) | > 35 µM (inactive)
46 | COc1ccc(OC)c(NC(=O)CSc2nnc(CNC(=O)COc3ccc(Cl)cc3)o2)c1 | > 35 µM (inactive)
47 | CCSc1nc(NCCN(C)C)c2c3c(sc2n1)COC(C)(CC)C3 (centres undefined) | > 35 µM (inactive)
48 | OC(COc1ccc2ccccc2c1Br)Cn1ccnc1 (centres undefined) | > 35 µM (inactive)

Row | SMILES | EC50
49 | Cc1cc(C)n(CCC(=O)N/N=C/c2ccc(Cl)c([N+](=O)[O-])c2)n1 | > 35 µM (inactive)
50 | O=C(Cn1ncc(Cl)c(Cl)c1=O)NCC1CCCCC1 | > 35 µM (inactive)
51 | Cn1cccc1C(=O)NC(=O)COC(=O)c1ccc(S(C)(=O)=O)cc1 | > 35 µM (inactive)
52 | CCCc1cc(=O)oc2cc(C)cc(OCC(=O)Nc3ccc(S(N)(=O)=O)cc3)c12 | > 35 µM (inactive)
53 | O=[N+]([O-])/C=C/c1ccc2c(ccn2Cc2ccccc2)c1 | 12.3 µM
54 | CCc1ccccc1NC(=O)CN(C)C(=O)Cn1ncc(Cl)c(Cl)c1=O | > 35 µM (inactive)
55 | CC(=O)OC[C@]12CC[C@H]3[C@@](C)(CC[C@H]4C(C)(C)CCC[C@]34C)[C@@H]1C[C@H](C1=CC(=O)O[C@H]1OC(C)=O)O2 | 3.27 µM
56 | CC1=NOC(=O)/C1=C\c1ccc(-c2cccc(Cl)c2)o1 | > 35 µM (inactive)
57 | Cc1cc(/C=C(/C#N)C(=O)O)c(C)n1-c1cccc2ccccc12 | > 35 µM (inactive)
58 | COc1ccc(NC(=O)C(=O)N/N=C\c2ccc(CNC(=O)C(=O)Nc3ccc(C)c(C)c3)o2)c(OC)c1 | 14.3 µM
59 | CN(C)C/C=C(\c1ccc(Br)cc1)c1cccnc1 | > 35 µM (inactive)
60 | CCc1cccc(C)c1Nc1nc2ccccc2n2cnnc12 | > 35 µM (inactive)
61 | Cc1ccc(C)c(NC(=O)CN(C)C(=O)c2ccc(-c3cccc(C(F)(F)F)c3)o2)c1 | > 35 µM (inactive)
62 | CCc1ccc(NC(=O)c2nc(S(=O)(=O)Cc3ccccc3)ncc2Cl)cc1 | > 35 µM (inactive)
63 | COc1ccc(CC(=O)Nc2ccc3c(c2)CCC3)cc1S(=O)(=O)N1CCOCC1 | > 35 µM (inactive)
64 | C=C1/C=C(\C)[C@](C)(O)C[C@H](O)CC(=O)[C@H](O)[C@@H](O)[C@H](C)C[C@H](C)OC(=O)/C(C)=C/CC/C=C/[C@@H]2O[C@H]2C[C@H](C)C1 | > 35 µM (inactive)
65 | O=C(Nc1cc(Cl)ccc1N1CCOCC1)c1cccnc1 | > 35 µM (inactive)
66 | CN(CC(=O)Nc1cccc2ccccc12)C(=O)c1ccc(NC(=O)CC#N)cc1 | > 35 µM (inactive)
67 | O=C(N=Nc1c(O)[nH]c2ccc([N+](=O)[O-])cc12)c1cc(-c2ccccc2Cl)nc2ccccc12 | > 35 µM (inactive)
68 | CC(C)C(OC(=O)c1cc2c(s1)CCCCC2)C(=O)NC(N)=O (centres undefined) | > 35 µM (inactive)
69 | CCOc1ccccc1NC(=O)Nc1cc(OC)ccc1OC | > 35 µM (inactive)
70 | Cc1ccc(S(=O)(=O)c2nnn3c2nc(Nc2cccc(C)c2)c2ccccc23)cc1 | > 35 µM (inactive)
71 | Cc1cccc(NC(=S)NC2CCCC2)c1C | > 35 µM (inactive)
72 | C=CCn1c(SCC(=O)NC2CC2)nnc1-c1ccccn1 | > 35 µM (inactive)

Row | SMILES | EC50
73 | CC(=O)Nc1ccc(NC(=O)C(C)OC(=O)/C=C/c2cn(-c3ccccc3)nc2-c2cccnc2)cc1 (centres undefined) | 17.1 µM
74 | O=c1c(O[C@@H]2O[C@H](CO)[C@@H](O)[C@H](O)[C@H]2O)c(-c2ccc(O)cc2)oc2cc(O)cc(O)c12 | > 35 µM (inactive)
75 | Cc1cc(N2CCN(c3ccccc3)CC2)nc(-c2ccccc2)n1 | > 35 µM (inactive)
76 | COc1ccc(NS(=O)(=O)c2cccc(C(=O)OCC(=O)c3c(N)n(C)c(=O)n(C)c3=O)c2)cc1 | > 35 µM (inactive)
77 | O=C(c1ccco1)N1CCN(C(=O)C2CCN(S(=O)(=O)c3cccs3)CC2)CC1 | > 35 µM (inactive)
78 | CN(C)C(=O)[C@@H]1C[C@H]1[C@@H](NC(=O)OCc1ccccc1)c1ccccc1 | > 35 µM (inactive)
79 | Cc1ccc2nc(N(CCCN(C)C)C(=O)c3ccc(S(=O)(=O)N4CCc5ccccc5C4)cc3)sc2c1 | > 35 µM (inactive)
80 | CC[C@H]1CN2CCc3cc(OC)c(OC)cc3[C@@H]2C[C@@H]1C[C@H]1NCCc2cc(OC)c(OC)cc21 | > 35 µM (inactive)
81 | Cc1cc(C(C#N)c2ccc(Cl)cc2)c(Cl)cc1NC(=O)c1cc(I)cc(I)c1O (centres undefined) | > 35 µM (inactive)
82 | Cc1ccc2[nH]c3c(c2c1)CCCC3NC(=O)CCl (centres undefined) | > 35 µM (inactive)
83 | CCc1cccc(N(CC(=O)NCc2ccc(F)cc2)C(=O)c2csnn2)c1 | > 35 µM (inactive)
84 | O=C(O)/C(=C\c1c(C(=O)O)[nH]c2cc(Cl)cc(Cl)c12)c1ccccc1 | > 35 µM (inactive)
85 | COC(=O)CN(c1ccc(OC)c(OC)c1)S(C)(=O)=O | > 35 µM (inactive)
86 | CC(C)C(=O)n1nc(-c2cccnc2)nc1NCc1ccc(F)cc1 | > 35 µM (inactive)
87 | CCOc1ccc(OCc2ccc(C(=O)NN=Cc3ccc[nH]3)cc2)cc1 | > 35 µM (inactive)
88 | COc1ccc(N2CC(C(=O)N[C@H](C(=O)NC(C)c3ccccc3)C(C)C)CC2=O)cc1 (some centres undefined) | > 35 µM (inactive)
89 | CCCOC(=O)Nc1ccc([As](=O)(O)O)cc1NC(=O)OCCC | > 35 µM (inactive)
90 | COc1ccc(OC)c(C2C(C(C)=O)=C(O)C(=O)N2Cc2cccnc2)c1 (centres undefined) | > 35 µM (inactive)
91 | Cc1cc(C)c(C(=O)COC(=O)C2CCN(c3ccc(C(F)(F)F)cn3)CC2)cc1C | > 35 µM (inactive)
92 | COc1cc(C(=O)Nc2cc(-c3ccccc3)[nH]n2)cc(OC)c1OC | > 35 µM (inactive)
93 | Cc1ccc(C(C(=O)NCc2ccco2)N(C(=O)Cc2cccs2)c2cccnc2)cc1 (centres undefined) | > 35 µM (inactive)
94 | CC(=O)Nc1ccc(NC(=O)C(=O)NCC(c2ccco2)N2CCc3ccccc32)cc1 (centres undefined) | 32.5 µM
